The data set is described as follows: photoluminescence quantum yield (fraction); solvent given as SMILES.

Regarding `N#C/C(=C\c1ccc(C=C(c2ccccc2)c2ccccc2)cc1)c1ccccc1`, for the setting “in C1CCOC1”, the photoluminescence quantum yield was determined as 0.045.

Under “in ClCCl”, `O=S1(=O)c2ccc(-c3ccc(-n4c5ccccc5c5ccccc54)cc3)cc2C2(c3ccccc3-c3ccccc32)c2cc(-c3ccc(-n4c5ccccc5c5ccccc54)cc3)ccc21` registered a photoluminescence quantum yield of 0.86.

As for `CC1(C)C(/C=C/C=C/C=C/C=C2/N(CCCCCC(=O)O)c3ccc(S(=O)(=O)[O-])cc3C2(C)C)=[N+](CCCCS(=O)(=O)[O-])c2ccc(S(=O)(=O)[O-])cc21`, the photoluminescence quantum yield is, setting by setting: (in CO) 0.55; (in O) 0.3.

`CN(C)c1ccc(/C=C/c2nc3c(ccc4ccccc43)s2)cc1`: the photoluminescence quantum yield runs as follows: (in C1CCCCC1) 0.012; (in CC#N) 0.008.

As to `CCN1c2ccc(/C=N/Nc3ccccn3)cc2Sc2cc(/C=N/Nc3ccccn3)ccc21`, the photoluminescence quantum yield stood at 0.15 (in C1CCOC1), 0.19 (in CS(C)=O), 0.14 (in Cc1ccccc1) and 0.37 (in ClCCl).

For the compound `COc1ccc(C2=Nc3cccc4[n+]3[B-](F)(O2)OC(c2ccc(OC)cc2)=N4)cc1`, the photoluminescence quantum yield (in ClCCl) turned out to be 0.39.

Take `CC(=O)Nc1ccc(C2=C/C(=C\c3ccc(C#N)cc3)C(=O)N2CC(C)C)cc1`: the photoluminescence quantum yield (in C1COCCO1) turned out to be 0.218.

`CCC1(CC)c2ccccc2-c2c1c1c(c3c2C(CC)(CC)c2cc(N(c4ccccc4)c4ccccc4)ccc2-3)C(CC)(CC)c2cc(N(c3ccccc3)c3ccccc3)ccc2-1`: for the setting “in C1CCOC1”, the photoluminescence quantum yield amounted to 0.36.

Regarding `COc1ccc2cc3cccc[n+]3cc2c1`, where the note is “in O”, the photoluminescence quantum yield came out at 0.2.

Consider `CC(C)=CCN1C(=O)c2cccc3c2c(cc2nc(C)oc23)C1=O`, for which the photoluminescence quantum yield (in CCO) is 0.011.

The compound `[C-]#[N+]c1ccc(-c2ccc(N(C)C)cc2)cc1` returned a photoluminescence quantum yield (in C1CCCCC1) of 0.82; a photoluminescence quantum yield (in C1CCOC1) of 0.85; a photoluminescence quantum yield (in C1COCCO1) of 0.74; a photoluminescence quantum yield (in CC#N) of 0.89; a photoluminescence quantum yield (in CC(C)=O) of 0.54; a photoluminescence quantum yield (in CCCCCC) of 0.66. Moreover, the photoluminescence quantum yield worked out at 0.54 (in CCOC(C)=O); 0.86 (in CN(C)C=O); 0.15 (in CO); 0.76 (in CS(C)=O); 0.62 (in Cc1ccccc1); 0.19 (in ClC(Cl)Cl). The same compound came in with a photoluminescence quantum yield (in ClCCl) of 0.8, a photoluminescence quantum yield (in O) of 0.016 and a photoluminescence quantum yield (in c1ccncc1) of 0.63.

As to `CC(C)(C(=O)c1ccc(N2c3ccccc3C(C)(C)c3ccccc32)cc1)C(=O)c1ccc(N2c3ccccc3C(C)(C)c3ccccc32)cc1`, the photoluminescence quantum yield (in c1ccc2c(c1)c1ccccc1n2-c1ccc(-c2ccc(-n3c4ccccc4c4ccccc43)cc2)cc1) came out at 0.64.

Regarding `CC1(C)C(/C=C/C2=C(Cl)C(=C/C=C3/N(CCCS(=O)(=O)[O-])c4ccccc4C3(C)C)/CCC2)=[N+](CCCS(=O)(=O)[O-])c2ccccc21`, under “in CO”, the photoluminescence quantum yield turned out to be 0.05.

For the compound `Cc1cc2c3ccccc3n(C)c2c2c1c1ccccc1n2C`, under “in ClCCl”, the photoluminescence quantum yield worked out at 0.114.

`O=C1c2cc3ccccc3cc2C2=Nc3cccc[n+]3[B-](F)(F)N12` came in with a photoluminescence quantum yield (in ClCCl) of 0.86.

Where the note is “in ClCCl”, `C(S/C=C/c1ccc(/C=C/SC=C2CCCCCCC2)cc1)=C1CCCCCCC1` came in with a photoluminescence quantum yield of 0.018.

For `CCN(CC)c1ccc2cc(/C=C/C(=C(C#N)C#N)c3ccc4c(c3)c3ccccc3n4CC)c(=O)oc2c1`, the photoluminescence quantum yield was 0.174 (in CC(C)=O); 0.125 (in CCOC(C)=O); 0.194 (in CN(C)C=O); 0.185 (in CS(C)=O); 0.041 (in Cc1ccccc1); 0.146 (in ClCCl).

Under “in C1CCOC1”, `c1cc2c3c(c1)-c1cccc4ccn(c14)B3n1ccc3cccc-2c31` gave a photoluminescence quantum yield of 0.65.

`CCCCN1C(=O)c2cccc3cccc(c23)C1=O` had a photoluminescence quantum yield (in Cc1ccccc1) of 0.04.

Regarding `CN(C)c1ccc(-c2ccc(C#N)s2)s1`, the photoluminescence quantum yield (in CCO) is 0.23.

Take `CCC(CC)COC1=CC2=C3c4cc(OCC(CC)CC)c(-c5cccs5)n4[B-](F)(F)[n+]4nnn(c43)[B-](F)(F)[N+]2=C1c1cccs1`: the photoluminescence quantum yield came to 0.06 (in C1CCOC1) and 0.06 (in ClCCl).

`C[Si]1(c2ccccc2)C(c2ccc3c4ccccc4n(-c4ccccc4)c3c2)=C(c2ccccc2)C(c2ccccc2)=C1c1ccc2c3ccccc3n(-c3ccccc3)c2c1` came in with a photoluminescence quantum yield (in C1CCOC1) of 0.0575.

On to `C/C=C/C=C/C1=NC(=C\c2ccc(O)cc2)/C(=O)N1C`, for which the photoluminescence quantum yield (in ClC(Cl)Cl) was determined as 0.01 and the photoluminescence quantum yield (in O) amounted to 0.0008.

`CCC[Si](CCC)(CCC)c1cc2ccc3cccc4ccc(c1C(=O)NC(C)(C)C)c2c34` yielded a photoluminescence quantum yield (in ClC(Cl)Cl) of 0.161.

In the case of `CCOC(=O)c1[nH]c(C)c(/C=C/c2c(I)c(C)c3n2[B-](F)(F)[N+]2=C(C)C(I)=C(C)C2=C3c2cc(OC)cc(OC)c2)c1C`, the photoluminescence quantum yield was 0.22 (in C1CCOC1), 0.23 (in CS(C)=O) and 0.21 (in ClCCl).

`COc1c2ccccc2c(OC)c2c1c1c(C)ccc(OC)c1n2C`: the photoluminescence quantum yield was found to be 0.23 (in C1CCCCC1), 0.26 (in CC#N), 0.25 (in CO) and 0.31 (in ClCCl).

As to `C[Si](C)(c1ccc2cc3ccccc3cc2c1)[Si](C)(C)c1ccc2cc3ccccc3cc2c1`, the photoluminescence quantum yield runs as follows: (in C1CCCCC1) 0.18; (in CC#N) 0.04.

As for `Cc1ccc2nc3c(nc2c1)c(-c1ccccc1)nn3C`, the photoluminescence quantum yield (in C1CCCCC1) is 0.29, the photoluminescence quantum yield (in C1CCOC1) is 0.47 and the photoluminescence quantum yield (in CC#N) was found to be 0.31.

For the setting “in ClCCl”, `CCCCCCC1(CCCCCC)c2ccccc2-c2ccc(-c3ccc(-c4cc(-c5ccccn5)nc(-c5ccccn5)c4)cc3)cc21` registered a photoluminescence quantum yield of 0.92.

`COc1ccc(-c2cnc(/C=C/c3ccccc3)o2)cc1OC` returned a photoluminescence quantum yield (in ClCCl) of 0.52.

`C(=C(c1ccccc1)c1ccccc1)c1ccc(-c2cc(-c3ccc(C=C(c4ccccc4)c4ccccc4)cc3)cc(-c3ccc(C=C(c4ccccc4)c4ccccc4)cc3)c2)cc1` had a photoluminescence quantum yield (in C1CCOC1) of 0.0045.

The compound `CC(=O)Nc1ccc2ccc3cccc4ccc1c2c34` came in with a photoluminescence quantum yield (in CC#N) of 0.23, a photoluminescence quantum yield (in CCCCOCCCC) of 0.27 and a photoluminescence quantum yield (in CO) of 0.13.

The compound `COc1cccc2oc(-c3cc4c(OC)cccc4oc3=O)cc12` had a photoluminescence quantum yield (in CS(C)=O) of 0.68.

For the compound `c1ccc(-c2cc3c(-c4ccccc4)c4cccc5c(-c6ccccc6)cc6c(-c7ccccc7)c7cccc2c7c3c6c54)cc1`, where the note is “in ClCCl”, the photoluminescence quantum yield was 0.26.

Under “in c1ccccc1”, `CCOC(=O)CSc1nc(C)c(C)c(C#N)c1C#N` came in with a photoluminescence quantum yield of 0.035.

As to `CC1=N/C(=C\c2cc(C#N)cc(N(C)C)c2)C(=O)N1C`, the photoluminescence quantum yield reads like this: (in C1CCOC1) 0.14; (in CC#N) 0.05; (in CCCCCC) 0.45.

`COc1ccc(C#Cc2nc(C#Cc3ccc(OC)cc3)c(C#Cc3ccc(OC)cc3)c(C#Cc3ccc(OC)cc3)c2C#Cc2ccc(OC)cc2)cc1` displayed a photoluminescence quantum yield (in ClCCl) of 0.81.

Take `COC(=O)c1[nH]c(-c2ccccc2)c2nnc3c4ccccc4oc3c12`: the photoluminescence quantum yield (in ClCCl) was found to be 0.167.

Under “in ClCCl”, `CC1CCC(=CS/C=C/c2ccc(/C=C/SC=C3CCC(C)CC3)cc2)CC1` (stereo not given) gave a photoluminescence quantum yield of 0.027.

Consider `O=C1NC(c2ccccc2)=N/C1=C\c1ccccc1`, for which the photoluminescence quantum yield (in C1COCCO1) came to 0.001.

For the compound `CC1(C)c2ccccc2N(c2ccc3c(c2)c2cc(N4c5ccccc5C(C)(C)c5ccccc54)cc4c5ccccc5n3c42)c2ccccc21`, where the note is “in O=P(c1ccccc1)(c1ccccc1)c1ccccc1Oc1ccccc1P(=O)(c1ccccc1)c1ccccc1”, the photoluminescence quantum yield was found to be 0.96.

In turn, `COc1ccc(/C=C/c2nc(N3CCOCC3)c3c([n+]2[O-])CCCC3)cc1` had a photoluminescence quantum yield (in ClCCl) of 0.12.

For the setting “in c1ccccc1”, `Cc1nc2c(ccc3ccc(N(C)C)cc32)oc1=O` had a photoluminescence quantum yield of 0.084.

For the compound `COc1ccc(-c2nc(-c3ccc(-c4nc(-c5ccc(OC)cc5)c(-c5ccc(OC)cc5)[nH]4)s3)[nH]c2-c2ccc(OC)cc2)cc1`, the photoluminescence quantum yield (in CC#N) was determined as 0.62.

For the setting “in ClCCl”, `CC(C)(C)c1ccc2c(c1)c1cc(C(C)(C)C)ccc1n2-c1ccc(C#Cc2ccccc2)cc1` had a photoluminescence quantum yield of 0.8.

In turn, `C/C=C/c1ccc(OC)c(OC)c1` came in with a photoluminescence quantum yield (in CC#N) of 0.28 and a photoluminescence quantum yield (in CCCCCC) of 0.35.

`CC(=O)OCCOCCN1C(=O)c2cc(NCCOCCO)c3c4c(cc(NCCOCCO)c(c24)C1=O)C(=O)N(CCOCCOC(C)=O)C3=O`: the photoluminescence quantum yield (in CO) amounted to 0.37, the photoluminescence quantum yield (in ClC(Cl)Cl) turned out to be 0.59 and the photoluminescence quantum yield (in O) worked out at 0.03.

As to `Cn1c2ccccc2c2c1c1ccccc1n2C`, the photoluminescence quantum yield (in CCCO) amounted to 0.81.

Compound `CSc1ccc(/C=C/c2cnc3ccccc3n2)cc1` gave a photoluminescence quantum yield (in ClCCl) of 0.02.

For `[O-]c1ccccc1-c1[nH+]c2c3ccccc3c3ccccc3c2o1`, the photoluminescence quantum yield (in Cc1ccccc1) was found to be 0.111.

`C(=C\c1cnc2ccccc2n1)/c1ccc(N(c2ccccc2)c2ccccc2)cc1`: under “in ClCCl”, the photoluminescence quantum yield came to 0.67.

Turning to `O=Cc1ccc(/C=C/c2nc(N3CCOCC3)c3c([n+]2[O-])CCCC3)cc1`, the photoluminescence quantum yield (in ClCCl) amounted to 0.025.

`COc1ccc2n1[B-](F)(F)[N+]1=CC=CC1=C2c1ccccc1`: the photoluminescence quantum yield by setting is: (in CC#N) 0.02; (in CCCCCC) 0.01; (in CCOC(C)=O) 0.01; (in CO) 0.02; (in ClCCl) 0.02.

In turn, `COc1ccc(C2=C(c3ccc(OC)cc3)C(C)(C)c3ccc4ccccc4c32)cc1` displayed a photoluminescence quantum yield (in C1CCCCC1) of 0.11.

For the compound `CCCN1C(=O)C(=CC=CC=C2Oc3ccccc3N2CCCS(=O)(=O)[O-])C(=O)N(CCC)C1=S`, the photoluminescence quantum yield by setting is: (in CC(C)=O) 0.41; (in CCCCO) 0.37; (in CCO) 0.25; (in CO) 0.17; (in ClC(Cl)Cl) 0.32; (in O) 0.04.

Source of the values: the Deep4Chem optical property database.
